Data as given in PMC2654404 (Journal of molecular biology, 2008).
Where “and” joins values, the source holds several entries; their conditions need not be identical. Identical values can stand only once. Like-named read-outs stand apart in the source and are kept apart here. Marks after values point to notes of the source that are not given here.

Legend:
[1] = target: T1, B. anthracis NMAT (Bacillus anthracis, UniProt C3L5T6); type: biochemical
[2] = target: T1, B. anthracis NMAT; type: biochemical; remark: listed apart in the source
[3] = target: T1, B. anthracis NMAT; type: biochemical; remark: listed apart in the source
[4] = test system: (His)6-tag B. anthracis NMAT; type: biochemical, Bacillus anthracis
[5] = test system: (His)6-tag B. anthracis NMAT; type: biochemical, Bacillus anthracis; remark: listed apart in the source
[6] = test system: native B. anthracis NMAT; type: biochemical, Bacillus anthracis; details: pH 7.5
[7] = target: T1, B. anthracis NMAT; test: biochemical; type: binding
[8] = test system: native B. anthracis NMAT; type: biochemical; details: pH 7.5
[9] = target: (His)6-tagged NMAT (Bacillus anthracis, UniProt C3L5T6)
Chain of (His)6-tagged NMAT (C3L5T6 whole entry, looked up): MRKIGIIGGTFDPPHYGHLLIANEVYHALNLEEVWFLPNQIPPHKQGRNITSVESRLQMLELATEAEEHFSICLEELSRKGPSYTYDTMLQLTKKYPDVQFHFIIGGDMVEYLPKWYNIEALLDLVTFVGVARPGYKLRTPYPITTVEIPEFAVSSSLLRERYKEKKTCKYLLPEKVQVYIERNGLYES

[10] = read-out: KD2 (dissociation constant, second site), pH 7.5

T1 sequence (C3L5T6 whole entry, looked up): as above

## Nc1nc2c(ncn2[C@@H]2O[C@H](COP(=O)(O)OP(=O)(O)OP(=O)(O)O)[C@@H](O)[C@H]2O)c(=O)[nH]1 [GTP, guanosine triphosphate]
[1]
  ability to serve as substrate for NMAT in place of ATP: Only CTP and dATP were able to serve as substrates

## O=C(CO)COP(=O)(O)O [DHAP, dihydroxyacetone phosphate]
[2]
  ability to activate or inhibit the NMAT reaction: None of these compounds were observed to have an effect

## NC(=O)c1ccc[n+]([C@@H]2O[C@H](COP(=O)([O-])O)[C@@H](O)[C@H]2O)c1 [NMN, nicotinamide mononucleotide]
[2]
  ability to activate or inhibit the NMAT reaction: None of these compounds were observed to have an effect
[3]
  activity of NMAT with the mononucleotide as substrate: little to no activity

## O=C(O)c1cccnc1C(=O)O [quinolic acid]
[2]
  ability to activate or inhibit the NMAT reaction: None of these compounds were observed to have an effect

## NC(=O)c1ccc[n+]([C@@H]2O[C@H](COP(=O)([O-])OP(=O)(O)OC[C@H]3O[C@@H](n4cnc5c(N)ncnc54)[C@H](O)[C@@H]3O)[C@@H](O)[C@H]2O)c1 [NAD, nicotinamide adenine dinucleotide]
[2]
  ability to activate or inhibit the NMAT reaction: None of these compounds were observed to have an effect

## OCC(O)CO [glycerol]
[4]
  effect of 10% glycerol on the steady-state kinetic parameters of ATP and NaMN: no significant change in the kinetic parameters

## Nc1nc2c(ncn2[C@@H]2O[C@H](COP(=O)(O)OP(=O)(O)O)[C@@H](O)[C@H]2O)c(=O)[nH]1 [GDP, guanosine diphosphates]
[1]
  ability to serve as substrate for NMAT in place of ATP: Only CTP and dATP were able to serve as substrates

## Nc1ccn([C@@H]2O[C@H](COP(=O)(O)OP(=O)(O)O)[C@@H](O)[C@H]2O)c(=O)n1 [CDP, cytidine diphosphate]
[1]
  ability to serve as substrate for NMAT in place of ATP: Only CTP and dATP were able to serve as substrates

## Nc1ncnc2c1ncn2[C@@H]1O[C@H](COP(=O)(O)OP(=O)(O)O)[C@@H](O)[C@H]1O [ADP]
[1]
  ability to serve as substrate for NMAT in place of ATP: Only CTP and dATP were able to serve as substrates
[2]
  ability to activate or inhibit the NMAT reaction: None of these compounds were observed to have an effect

## O=c1ccn([C@@H]2O[C@H](CO[P@@](=O)(O)O[P@@](=O)(O)OP(=O)(O)O)[C@@H](O)[C@H]2O)c(=O)[nH]1 (stereo in doubt) [UTP, uridine triphosphate]
[1]
  ability to serve as substrate for NMAT in place of ATP: Only CTP and dATP were able to serve as substrates

## O=C(O)c1ccc[n+]([C@@H]2O[C@H](COP(=O)(O)O)[C@@H](O)[C@H]2O)c1 [NaMN, nicotinate mononucleotide]
[5]
  difference in K0.5 between the continuous and discontinuous assays: ~4 fold
[6]
  K0.5: 110 ± 18 ^c μM and 65 ± 5 ^d μM
  kcat: 1059 ± 49 ^c min^−1 and 890 ± 16 ^d min^−1
  nH (Hill coefficient): 0.708 ± 0.004 ^c
[7]; pH 7.5
  ΔH1: ΔH1= −5385 ± 47 cal/mol
  ΔH2: ΔH2= −3954 ± 183 cal/mol
  ΔS1: ΔS1= −2.4 cal/mol*K
  ΔS2: ΔS2= −3.9 cal/mol*K
[7]; read-out: KD1 (dissociation constant, first site), pH 7.5
  Kd: 382 µM
[7]; [10]
  Kd: 9210 µM
[8]
  K0.5: 16 ± 1 ^c μM and 15 ± 1 ^d μM
  kcat: 815 ± 12 ^c min^−1 and 782 ± 7 ^d min^−1
  nH (Hill coefficient): 0.806 ± 0.004 ^c

## O=c1ccn([C@@H]2O[C@H](COP(=O)(O)OP(=O)(O)O)[C@@H](O)[C@H]2O)c(=O)[nH]1 [UDP, uridine diphosphate]
[1]
  ability to serve as substrate for NMAT in place of ATP: Only CTP and dATP were able to serve as substrates

## Nc1ccn([C@@H]2O[C@H](COP(=O)(O)OP(=O)(O)OP(=O)(O)O)[C@@H](O)[C@H]2O)c(=O)n1 [CTP, cytidine triphosphate]
[1]
  ability to serve as substrate for NMAT in place of ATP: able to serve as substrates

## O=c1[nH]cnc2c1ncn2[C@@H]1O[C@H](COP(=O)(O)OP(=O)(O)O)[C@@H](O)[C@H]1O [IDP, inosine diphosphate]
[1]
  ability to serve as substrate for NMAT in place of ATP: Only CTP and dATP were able to serve as substrates

## Nc1ncnc2c1ncn2[C@@H]1O[C@H](COP(=O)(O)OP(=O)(O)OC[C@H]2O[C@@H]([n+]3cccc(C(=O)O)c3)[C@H](O)[C@@H]2O)[C@@H](O)[C@H]1O [NaAD, nicotinate adenine dinucleotide]
[7]; pH 7.5
  Stoichiometry to monomer: 0.924 ± 0.003
  ΔH: -26.97 ± 0.126 kJ/mol
  ΔS: ΔS=3.5 cal/mol*K
[7]; read-out: KD (dissociation constant), pH 7.5
  Kd: 3.2 ± 0.8 µM
[9]
  pattern of inhibition by the reaction product, ATP as variable substrate: competitive inhibition
  pattern of inhibition by the reaction product, NaMN as variable substrate: competitive inhibition

## N[C@@H](CC(=O)O)C(=O)O [L-aspartic acid]
[2]
  ability to activate or inhibit the NMAT reaction: None of these compounds were observed to have an effect

## Nc1ncnc2c1ncn2[C@H]1C[C@H](O)[C@@H](COP(=O)(O)OP(=O)(O)OP(=O)(O)O)O1 [dATP, Deoxyadenosine triphosphate]
[1]
  ability to serve as substrate for NMAT in place of ATP: able to serve as substrates

## Cc1cn([C@H]2C[C@H](O)[C@@H](COP(=O)(O)OP(=O)(O)O)O2)c(=O)[nH]c1=O [TDP, thymidine diphosphate]
[1]
  ability to serve as substrate for NMAT in place of ATP: Only CTP and dATP were able to serve as substrates

## Nc1ncnc2c1ncn2[C@@H]1O[C@H](COP(=O)(O)O)[C@@H](O)[C@H]1O [AMP]
[1]
  ability to serve as substrate for NMAT in place of ATP: Only CTP and dATP were able to serve as substrates
[2]
  ability to activate or inhibit the NMAT reaction: None of these compounds were observed to have an effect

## nicotinamide adenine dinucleotide phosphate [NADP]
[2]
  ability to activate or inhibit the NMAT reaction: None of these compounds were observed to have an effect

## Nc1ncnc2c1ncn2[C@@H]1O[C@H](COP(=O)(O)OP(=O)(O)OP(=O)(O)O)[C@@H](O)[C@H]1O [ATP, adenosine triphosphate]
[5]
  difference in K0.5 between the continuous and discontinuous assays: ~4 fold
[6]
  kcat: 1240 ± 111 ^c min^−1 and 864 ± 19 ^d min^−1
  nH (Hill coefficient): 0.661 ± 0.004 ^c
[7]
  Kd: 215 µM
[7]; pH 7.5
  ΔH1: ΔH1= −5348 ± 216 cal/mol
  ΔH2: ΔH2= −1.4E4 ± 350 cal/mol
  ΔS1: ΔS1= −1.2 cal/mol*K
  ΔS2: ΔS2= −36 cal/mol*K
[7]; [10]
  Kd: 3720 µM
[4]; pH 7.5
  K0.5: 142 ± 28 μM and 142 ± 28 ^c μM and 79 ± 6 ^d μM
[8]
  kcat: 973 ± 120 ^c min^−1 and 702 ± 20 ^d min^−1
  nH (Hill coefficient): 0.621 ± 0.007 ^c

## O=P(O)(O)OC[C@H]1O[C@H](OP(=O)(O)OP(=O)(O)O)[C@H](O)[C@@H]1O [PRPP, 5-phospho-ribose-1-pyrophosphate]
[2]
  ability to activate or inhibit the NMAT reaction: None of these compounds were observed to have an effect
